Assay results reported in article PMC11310598, “Gestodene, a novel positive allosteric modulator of PAR1, enhances PAR1-mediated human platelet aggregation” (Frontiers in Pharmacology, 2024).

Molecular target: T1, Protease-activated receptor 1 (PAR1) (Homo sapiens, UniProt P25116)
T1 construct: gene F2R; endogenous PAR1 in HT29 cells
T1 sequence (P25116 42-425): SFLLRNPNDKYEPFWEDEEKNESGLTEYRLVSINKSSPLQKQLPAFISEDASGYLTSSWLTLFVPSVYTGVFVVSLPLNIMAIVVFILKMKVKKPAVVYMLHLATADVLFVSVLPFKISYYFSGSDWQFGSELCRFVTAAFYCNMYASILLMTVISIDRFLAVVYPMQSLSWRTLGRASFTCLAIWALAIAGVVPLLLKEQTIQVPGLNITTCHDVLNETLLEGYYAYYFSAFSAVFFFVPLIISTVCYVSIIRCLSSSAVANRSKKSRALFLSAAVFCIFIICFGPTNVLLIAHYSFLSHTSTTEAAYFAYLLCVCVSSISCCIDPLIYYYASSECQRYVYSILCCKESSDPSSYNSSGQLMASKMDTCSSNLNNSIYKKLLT
Experiment: Fluo-4 intracellular calcium, potentiation of thrombin or PAR1-AP response; blocked by vorapaxar
Type: cell-based

In the case of `C#C[C@]1(O)C=C[C@H]2[C@@H]3CCC4=CC(=O)CC[C@@H]4[C@H]3CC[C@@]21CC` [gestodene], the EC50 is reported as 4.54 ± 0.27 µM.
